Laboratory results from patent publication US6573219B1, “Substituted heterocyclyl-2H-chromenes” (Bayer Aktiengesellschaft, priority 1999, dated 2003).

What was measured:
weeds [1] = assay: Pre-emergence test (Example A), weeds; type: in vivo; details: soil sprayed 24 hours after sowing, rated after three weeks
Source text: (§1) Solvent: 5 parts by weight of acetone
(§2) Emulsifier: 1 part by weight of alkylaryl polyglycol ether
Seeds of the test plants are sown in normal soil.
(§3) After three weeks, the degree of damage to the plants is rated in % damage in comparison to the development of the untreated control.

[2] = LogP determination by HPLC (EEC directive 79/831 Annex V.A8, reversed-phase C18); type: physicochemical; details: reversed-phase C18 HPLC column, mobile phase range not labelled
Method: The LogP values given in Table 1 were determined in accordance with EEC directive 79/831 Annex V.A8 by HPLC (High Performance Liquid Chromatography) using a reversed-phase column (C 18). Temperature: 43° C.
(a) Mobile phases for the determination in the acidic range: 0.1% aqueous phosphoric acid, acetonitrile; linear gradient from 10% acetonitrile to 90% acetonitrile—the corresponding data in Table 1 are labelled^a).
(b) Mobile phases for the determination in the neutral range, 0.01 molar aqueous phosphate buffer solution, acetonitrile; linear gradient from 10% acetonitrile to 90% acetonitrile—the corresponding data in Table 1 are labelled b
Calibration was carried out using unbranched alkan-2-ones (with from 3 to 16 carbon atoms) whose logP values are known (determination of the logP values by the retention times using linear interpolation between two successive alkanones).

weeds [3] = assay: Post-emergence test (Example B), weeds; type: in vivo; details: test plants of 5-15 cm sprayed, rated after three weeks
Source text: as §1, §2, §3

SMILES	melting point	chromatographic logP [2]	activity against weeds (degree of damage) (weeds [1])	activity against weeds (degree of damage) (weeds [3])
CC1C=Cc2c(c(C#N)cc(F)c2-n2c(=O)cc(C(F)(F)F)n(N)c2=O)O1 (stereo not shown) [Example 1]	–	–	very strong activity	–
N#Cc1cc(F)c(N2C(=O)c3ccccc3C2=O)cc1O [N-(2-fluoro-4-cyano-5-hydroxy-phenyl)-phthalimide]	247 °C	2.04	–	–
CC1C=Cc2c(c(C#N)cc(F)c2-n2nc(C(F)(F)F)n(C)c2=S)O1 (stereo not shown) [Example 2]	144 °C	3.37	–	very strong activity

Further lines, with some results ahead:

melting point	chromatographic logP [2]	SMILES	activity against weeds (degree of damage) (weeds [1])	activity against weeds (degree of damage) (weeds [3])
245 °C	2.51	COc1cc(N2C(=O)c3ccccc3C2=O)c(F)cc1C#N [N-(2-fluoro-4-cyano-5-methoxy-phenyl)-phthalimide]	–	–
170 °C	2.92	C#CC(C)Oc1cc(N2C(=O)c3ccccc3C2=O)c(F)cc1C#N (stereo not shown) [Example (II-2), N-[2-fluoro-4-cyano-5-(but-1-in-3-yl)-oxyphenyl]-phthalimide]	–	–
